In patent US20070004660A1, “Synergistic Modulation of Flt3 Kinase Using Alkylquinolines and Alkylquinazolines” (priority 2005, published 2007) one finds IC50 data, which are given here for 23 compounds.

Where only a bound is given, the exact number is not on record here.

The target in this experiment is T1, wild-type FLT3 receptor (Homo sapiens, UniProt P36888).
T1 construct: host or cells: Baf3 (murine B cell lymphoma line), stably transfected
T1 sequence (P36888 27-993): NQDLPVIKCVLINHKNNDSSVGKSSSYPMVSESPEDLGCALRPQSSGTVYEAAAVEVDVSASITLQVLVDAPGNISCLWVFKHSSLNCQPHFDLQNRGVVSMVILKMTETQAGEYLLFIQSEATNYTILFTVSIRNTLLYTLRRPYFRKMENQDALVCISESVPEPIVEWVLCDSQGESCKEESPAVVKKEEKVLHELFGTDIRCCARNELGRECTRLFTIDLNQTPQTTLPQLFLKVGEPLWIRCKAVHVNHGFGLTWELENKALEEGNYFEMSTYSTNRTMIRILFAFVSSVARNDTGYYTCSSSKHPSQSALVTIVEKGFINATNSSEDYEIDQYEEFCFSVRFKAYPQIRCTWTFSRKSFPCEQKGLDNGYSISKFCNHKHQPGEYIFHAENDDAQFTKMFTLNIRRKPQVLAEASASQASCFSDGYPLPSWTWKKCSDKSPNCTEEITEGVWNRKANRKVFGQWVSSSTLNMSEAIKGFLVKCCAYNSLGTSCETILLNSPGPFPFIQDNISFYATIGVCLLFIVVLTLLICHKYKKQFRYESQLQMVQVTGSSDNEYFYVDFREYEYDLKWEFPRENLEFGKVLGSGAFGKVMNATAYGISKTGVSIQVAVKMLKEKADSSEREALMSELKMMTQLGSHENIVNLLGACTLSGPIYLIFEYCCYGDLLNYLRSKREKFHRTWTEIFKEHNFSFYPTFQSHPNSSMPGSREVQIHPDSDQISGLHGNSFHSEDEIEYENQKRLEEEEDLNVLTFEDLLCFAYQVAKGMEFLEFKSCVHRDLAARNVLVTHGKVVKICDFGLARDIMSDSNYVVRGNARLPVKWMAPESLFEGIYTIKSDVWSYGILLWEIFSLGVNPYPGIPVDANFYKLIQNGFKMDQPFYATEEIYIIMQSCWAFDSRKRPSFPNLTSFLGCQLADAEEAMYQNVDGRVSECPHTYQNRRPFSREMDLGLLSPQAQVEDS
The experiment in a line: Cell-based FLT3 receptor ELISA (FLT ligand-induced phosphorylation in Baf3 FLT3 cells). The conditions noted are these: 100 ng/mL Flt ligand, uncertainty ±20%. The gist of the method: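 Receptor phosphotyrosine measured by sandwich ELISA (anti-FLT3 capture, HRP anti-pTyr, luminescence) in FLT3-transfected murine Baf3 cells given 1 h compound pretreatment and 10 min 100 ng/mL FLT ligand after overnight low-serum starvation; triplicates, IC50 from nonlinear regression.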
In general terms: An ELISA detects its analyte on a solid surface through an enzyme-linked reagent.
Compound `CC(C)Oc1ccc(NC(=O)N2CCC(c3ncnc4cc(OCCN5CCCCC5)ccc34)CC2)cc1` [Example 34, 4-(7-(2-Piperindin-1-yl-ethoxy)-quinazolin-4-yl)-piperidine-1-carboxylic acid (4-isopropoxy-phenyl)-amide] displayed an IC50 of 79 nM.
The result for `COc1cc2c(C3CCN(C(=O)Nc4ccc(N5CCOCC5)cc4)CC3)ncnc2cc1OCCCN1CCN(C)CC1` [Compound 207, 4-{6-Methoxy-7-[3-(4-methyl-piperazin-1-yl)-propoxy]-quinazolin-4-yl}-piperidine-1-carboxylic acid (4-morpholin-4-yl-phenyl)-amide] reads 42 nM; that for `COc1cc2c(C3CCN(C(=O)Nc4ccc(N5CCOCC5)cc4)CC3)ncnc2cc1N1CCOCC1` [Compound 212, 4-(6-Methoxy-7-morpholin-4-yl-quinazolin-4-yl)-piperidine-1-carboxylic acid (4-morpholin-4-yl-phenyl)-amide], 93 nM.
To `CCN(CC)CCOc1ccc2c(C3CCN(C(=O)Nc4ccc(OC(C)C)cc4)CC3)ncnc2c1` [Example 35, 4-[7-(2-Diethylamino-ethoxy)-quinazolin-4-yl)-piperidine-1-carboxylic acid (4-isopropoxy-phenyl)-amide] belongs 60 nM.
Regarding `COc1cc2c(C3CCN(C(=O)Nc4ccc(N5CCCC5)cc4)CC3)ncnc2cc1OCCN1CCCC1=O` [Compound 209, 4-{6-Methoxy-7-[2-(2-oxo-pyrrolidin-1-yl)-ethoxy]-quinazolin-4-yl}-piperidine-1-carboxylic acid (4-pyrrolidin-1-yl-phenyl)-amide], the IC50 is 37 nM.
To `COc1cc2c(C3CCN(C(=O)Nc4ccc(N5CCCC5)cc4)CC3)ncnc2cc1N1CCOCC1` [Compound 211, 4-(6-Methoxy-7-morpholin-4-yl-quinazolin-4-yl)-piperidine-1-carboxylic acid (4-pyrrolidin-1-yl-phenyl)-amide] belongs 1 nM.
With `CC(C)Oc1ccc(NC(=O)N2CCC(c3ncnc4cc(OCCCN5CCN(C)CC5)ccc34)CC2)cc1` [Example 39], it took 8 nM to reach half-maximal inhibition (IC50).
`COc1ccc2c(C3CCN(C(=O)Nc4ccc(C(C)C)cc4)CC3)ncnc2c1` [Example 32, 4-(7-Methoxy-quinazolin-4-yl)-piperidine-1-carboxylic acid (4-isopropyl-phenyl)-amide] yielded an IC50 of 35 nM.
`COc1cc2ncnc(C3CCN(C(=O)Nc4ccc(NC(C)=O)cc4)CC3)c2cc1OC` [Example 25, 4-(6,7-Dimethoxy-quinazolin-4-yl)-piperidine-1-carboxylic acid (4-acetylamino-phenyl)-amide] displayed an IC50 of more than 10000 nM.
The result for `COc1ccc2c(C3CCN(C(=O)Nc4ccc(OC(C)C)cc4)CC3)ncnc2c1` [Example 31, 4-(7-Methoxy-quinazolin-4-yl)-piperidine-1-carboxylic acid (4-isopropoxy-phenyl)-amide] reads 55 nM; that for `CCN(CC)CCCOc1ccc2c(C3CCN(C(=O)Nc4ccc(OC(C)C)cc4)CC3)ncnc2c1` [Example 36, 4-[7-(3-Diethylamino-propoxy)-quinazolin-4-yl)-piperidine-1-carboxylic acid (4-isopropoxy-phenyl)-amide], 18 nM.
The result for `CC(C)Oc1ccc(NC(=O)N2CCC(c3ncnc4cc(Cl)ccc34)CC2)cc1` [Example 29, 4-(7-Chloro-quinazolin-4-yl)-piperidine-1-carboxylic acid (4-isopropoxy-phenyl)-amide] reads 50 nM.
To `COc1cc2ncnc(C3CCN(C(=O)Nc4ccc(-n5ccnc5)cc4)CC3)c2cc1OC` [Example 3, 4-(6,7-Dimethoxy-quinazolin-4-yl)-piperidine-1-carboxylic acid (4-imidazol-1-yl-phenyl)-amide] belongs 938 nM; to `CC(C)Oc1ccc(NC(=O)N2CCC(c3ncnc4cc(OCCCN5CCCCC5)ccc34)CC2)cc1` [Example 33, 4-(7-(3-Piperidin-1-yl-propoxy)-quinazolin-4-yl)-piperidine-1-carboxylic acid (4-isopropoxy-phenyl)-amide], 11 nM; to `CC(C)c1ccc(NC(=O)N2CCC(c3ncnc4cc(Cl)ccc34)CC2)cc1` [Example 30, 4-(7-Chloro-quinazolin-4-yl)-piperidine-1-carboxylic acid (4-isopropyl-phenyl)-amide], 83 nM.
Regarding `COc1cc2ncnc(C3CCN(C(=O)Nc4ccc(I)cc4)CC3)c2cc1OC` [Example 2, 4-(6,7-Dimethoxy-quinazolin-4-yl)-piperidine-1-carboxylic acid (4-iodo-phenyl)-amide], the IC50 worked out at 890 nM.
With `COCCOc1ccc(NC(=O)N2CCC(c3ncnc4cc(OC)c(OC)cc34)CC2)cc1` [Example 40, 4-(6,7-Dimethoxy-quinazolin-4-yl)-piperidine-1-carboxylic acid [4-(2-methoxy-ethoxy)-phenyl]-amide], the IC50 was found to be 1500 nM.
`O=C(Nc1ccc(N2CCCC2)cc1)N1CCC(c2ncnc3cc(N4CCOCC4)c(F)cc23)CC1` [Compound 210, 4-(6-Fluoro-7-morpholin-4-yl-quinazolin-4-yl)-piperidine-1-carboxylic acid (4-pyrrolidin-1-yl-phenyl)-amide] showed an IC50 of 25 nM.
The result for `O=C1CCCN1CCOc1cc2ncnc(C3CCN(C(=O)Nc4ccc(N5CCCC5)cc4)CC3)c2cc1F` [Compound 206, 4-{6-Fluoro-7-[2-(2-oxo-pyrrolidin-1-yl)-ethoxy]-quinazolin-4-yl}-piperidine-1-carboxylic acid (4-pyrrolidin-1-yl-phenyl)-amide] reads 22 nM; that for `CC(C)Oc1ccc(NC(=O)N2CCC(c3ncnc4cc(OCCCN5CCOCC5)ccc34)CC2)cc1` [Example 38], 15 nM; that for `COc1cc2ncnc(C3CCN(C(=O)Nc4ccc(N(C)C)cc4)CC3)c2cc1OC` [Example 26, 4-(6,7-Dimethoxy-quinazolin-4-yl)-piperidine-1-carboxylic acid (4-dimethylamino-phenyl)-amide], 109 nM.
The result for `CC(C)Oc1ccc(NC(=O)N2CCC(c3ncnc4cc(OCCN5CCOCC5)ccc34)CC2)cc1` [Example 37] reads 51 nM; that for `COc1cc2ncnc(C3CCN(C(=O)Cc4ccc(C(C)C)cc4)CC3)c2cc1OC` [Example 28, 1-[4-(6,7-Dimethoxy-quinazolin-4-yl)-piperidin-1-yl]-2-(4-isopropyl-phenyl)-ethanone], 2 nM.

In general, IC50 refers to the concentration needed to halve the response being measured.
